Laboratory results reported in US20160002316A1, “SERPINS: METHODS OF THERAPEUTIC BETA-CELL REGENERATION AND FUNCTION” (SANOFI, priority 2013, published 2016).

Assays:
human islet β cells = assay: Human islet studies, Ki67+ insulin+ cells; assay type: cell-based; conditions: human islets, 24 hr
Procedure: Human islets were obtained from the Integrated Islet Distribution Program. All studies and protocols used were approved by the Joslin Diabetes Center's Committee on Human Studies (CHS#5-05). Upon arrival, islets were cultured overnight in Miami Media #1A (Cellgro). The islets were then starved in Final Wash/Culture Media (Cellgro, Manassas, Va.) for 3 hr prior to stimulation with serum (diluted to 10% v/v), LECM (diluted to 10% v/v), or HCM (diluted to 50% v/v) or Miami Media #1A supplemented with Sivelestat or GW311616A for 24 hr. Islets were used for immunostaining studies as described (El Ouaamari, et al., 2013).
Pancreases and islets were analyzed by immunostaining using anti-Ki67 (BD), anti-insulin (Abcam, Cambridge, Mass.), or anti-glucagon (Sigma-Aldrich, St. Louis, Mo.) antibodies. Quantification of replicating β- and α-cells was performed as described previously (El Ouaamari, et al., 2013).
In all experiments, cell counting was manually performed in a blinded fashion by a single observer. BrdU+ or Ki67+ β cells were assessed by immunofluorescence microscopy. Insulin+ cells showing nuclear DAPI staining were considered as β cells. Insulin+ cells showing nuclear colocalized staining for DAPI+ and Ki67+(or BrdU+) were counted as proliferating β cells. […]

islet β-cells [1] = assay: Daily oral gavage of GW311616A for 2 weeks, β-cell mass and replication; assay type: in vivo, mouse; conditions: 2 mg/kg/day
Procedure: (§1) Five to six-week old mice were administrated with Sivelestat or GW311616A for 2 weeks. Islet β-cell and α-cell replication was assessed by immunostaining. A) Schematic of the experimental protocol of Sivelestat administration. B) Quantification of pancreatic sections harvested from animals stimulated with Sivelestat and immunostained for insulin/BrdU/DAPI or glucagon/BrdU/DAPI. C) Schematic of the experimental protocol of GW311616A delivery. D) Quantification of pancreatic sections dissected from GW311616A-treated males and immunostained for insulin/BrdU/DAPI or glucagon/BrdU/DAPI.
Five to six-week old male mice were daily gavaged with GW311616A or vehicle (water) for 2 weeks. Mice were injected during the second week with BrdU (100 mg/kg Body weight) and sacrificed 5 hour after last injection of BrdU. Pancreases and other tissues were harvested for morphometric studies. A) Schematic of the experimental protocol of GW311616 administration. B) Pancreatic sections harvested from animals stimulated with GW311616 were immunostained for insulin/BrdU/DAPI (upper panel) or glucagon/BrdU/DAPI (lower panel). C) Quantification of β-cell mass. D) Quantification of insulin+BrdU+ cells. E) Quantification of glucagon+BrdU+ cells. F-G) Representative images and quantification of nuclei BrdU+ in liver, kidney, spleen, visceral and subcutaneous adipose tissue and skeletal muscle tissue.
To explore whether increased β-cell replication secondary to enhanced SerpinB1 activity can be recapitulated in vivo, we used pharmacological compounds Sivelestat (Kawabata, et al., 1991) and GW311616A (Macdonald, et al., 2001), that are selective inhibitors of elastase, one of the major substrates of SerpinB1. Using osmotic pumps, we delivered a continuous infusion of Sivelestat for a 2-week period followed by evaluating the number of replicating β-cells by BrdU incorporation (FIG. 20A). […] In a second approach we gavaged mice with the NE inhibitor, GW311616A, at a dose of 2 mg/kg/day for 2 weeks (FIG. 20C and FIG. 22 A). […] Moreover, cell proliferation was not increased in extra-pancreatic tissues including liver, skeletal muscle, visceral and subcutaneous adipose tissue, spleen and kidney (FIGS. 22 F & G).
For Sivelestat administration, mice were anesthetized, and osmotic pumps (ALZET) containing 100 μl of either vehicle or Sivelestat (Santa Cruz) were implanted subcutaneously. Sivelestat was dissolved in 50% DMSO and was administered at a dose of 150 or 300 μg/kg/day. Control mice were infused with DMSO 50% alone. GW311616A was administered into mice by daily oral gavage for two weeks. Mice received either GW311616A (2 mg/kg body weight) or vehicle.

[2] = test system: primary mouse islets β-cells; assay: Mouse islets cultured with recombinant SerpinB1, ovalbumin or elastase inhibitors, Ki67 immunostaining; assay type: cell-based; conditions: for mouse islet β-cell proliferation in vitro: Sivelestat (50 μg/ml) or GW311616A (100 μg/ml), FIG. 25 C
Procedure: Five to six-week old male mouse islets were cultured in the presence of different molecules for 48 h. Islet β-cell replication was assessed by Ki67 immunostaining studies. A) Representative images of islets stimulated with 100 or 1000 ng/ml of human recombinant SerpinB1. B) Quantification of Ki67+ insulin+ cells in islets stimulated with 1 to 1000 ng/ml of rSerpinB1 or 1000 ng/ml of ovalbumin (OVA). C) Representative images (left panel) and quantification (right panel) of Ki67+ insulin+ islet cells stimulated with Sivelestat (50 μg/ml) or GW311616A (100 μg/ml). D) Representative images of human islets stimulated for 24 hours with Sivelestat or GW311616A or control conditions.
To test whether SerpinB1 is a β-cell growth factor, we cultured freshly isolated primary mouse islets in presence of various doses of recombinant human SerpinB1 or ovalbumin (SerpinB14) and evaluated β-cell proliferation by Ki67 immunofluorescent staining (known to those of ordinary skill in the art).
To address whether SerpinB1 acts directly to stimulate β-cell proliferation, we cultured mouse islets in the presence of various doses of human recombinant SerpinB1 and a control (ovalbumin), and evaluated β-cell proliferation by Ki67 immunofluorescence staining (FIG. 21 A).
(§2) A major substrate of SerpinB1 is neutrophil elastase. To investigate whether the proliferative action of SerpinB1 is mediated by antagonizing neutrophil elastase activity, we assessed the ability of the neutrophil elastase inhibitor, Sivelestat (Sivelestat is the International Nonproprietary Name (INN) as given by the World Health Organization (WHO); the chemical name is: N-{2-[({4-[(2,2-dimethylpropanoyl)oxy]phenyl}sulfonyl)amino]benzoyl}glycine), to stimulate islet β-cell proliferation in vitro.

islet β-cells [3] = assay: Continuous infusion of Sivelestat by osmotic pump for 2 weeks, β-cell replication; assay type: in vivo, mouse; conditions: 2-week infusion
Procedure: as §1
Five to six-week old male mice were continuously infused for 2 weeks with vehicle or Sivelestat at 150 or 300 μg/kg/day. Mice were injected during the second week with BrdU (100 mg/kg Body weight) and sacrificed 5 hour after last injection of BrdU. Pancreases were harvested for morphometric studies. A-B) Representative images and quantification of nuclei BrdU+ in insulin+ cells. C-D) Representative images and quantification of nuclei pHH3+ in insulin+ cells. E-F) Representative images and quantification of nuclei BrdU+ in glucagon+ cells. […]

[4] = test system: human (EndoC-βH1) β-cells; assay: EndoC-βH1 cells treated with Sivelestat, Ki67; assay type: cell-based; conditions: 100 μg/ml
Source text: as §2

CC(C)[C@@H]1C(=O)N(S(C)(=O)=O)[C@@H]2CCN(C(=O)/C=C/CN3CCCCC3)[C@H]21.Cl [GW311616A]
number of replicating insulin-producing cells (Ki67+ insulin+) (human islet β cells): significantly higher
cell proliferation in extra-pancreatic tissues (liver, skeletal muscle, visceral and subcutaneous adipose tissue, spleen, kidney) (islet β-cells [1]): not increased
α-cell proliferation by BrdU incorporation (islet β-cells [1]): not α-cell proliferation
β-cell mass (islet β-cells [1]): significantly enhanced β-cell mass
β-cell proliferation by BrdU incorporation (islet β-cells [1]): increased β-cell proliferation
mouse islet β-cell proliferation in vitro [2]: directly increased

CC(C)(C)C(=O)Oc1ccc(S(=O)(=O)Nc2ccccc2C(=O)NCC(=O)O)cc1 [Sivelestat, N-{2-[({4-[(2,2-dimethylpropanoyl)oxy]phenyl}sulfonyl)amino]benzoyl}glycine]
proliferation of glucagon-producing α-cells (islet β-cells [3]; 300 μg/kg/day): did not significantly alter
effect on β-cells by pHH3 staining (islet β-cells [3]): confirmed by pHH3 staining
number of replicating insulin-producing cells (Ki67+ insulin+) (human islet β cells): significantly higher
mouse islet β-cell proliferation in vitro [2]: directly increased
number of proliferating insulin+ cells ([2]; higher doses, e.g. 10 and 50 μg/ml): substantial increase
β-cell proliferation ([2]; low doses 1 and 5 μg/ml): do not enhance β-cell proliferation
number of Ki67 positive β-cells compared to non-treated cells [4]: increased the number

B1: SerpinB1: recombinant human SerpinB1, serine peptidase inhibitor B1, 42 kD protein (protein)
chain: MEQLSSANTRFALDLFLALSENNPAGNIFISPFSISSAMAMVFLGTRGNTAAQLSKTFHFNTVEEVHSRFQSLNADINKRGASYILKLANRLYGEKTYNFLPEFLVSTQKTYGADLASVDFQHASEDARKTINQWVKGQTEGKIPELLASGMVDNMTKLVLVNAIYFKGNWKDKFMKEATTNAPFRLNKKDRKTVKMMYQKKKFAYGYIEDLKCRVLELPYQGEELSMVILLPDDIEDESTGLKKIEEQLTLEKLHEWTKPENLDFIEVNVSLPRFKLEESYTLNSDLARLGVQDLFNSSKADLSGMSGARDIFISKIVHKSFVEVNEEGTEAAAATAGIATFCMLMPEENFTADHPFLFFIRHNSSGSILFLGRFSSP
concentration at which the increase reached statistical significance ([2]; compared to ovalbumin at a similar concentration): 1 µg/mL
Ki67+ insulin+ cells ([2]; various doses (1 to 1000 ng/ml), 48 h): dose-dependent increase

B2: ovalbumin: ovalbumin (SerpinB14), control protein (protein, UniProt P01012 2-386, looked up)
Ovalbumin: GSIGAASMEFCFDVFKELKVHHANENIFYCPIAIMSALAMVYLGAKDSTRTQINKVVRFDKLPGFGDSIEAQCGTSVNVHSSLRDILNQITKPNDVYSFSLASRLYAEERYPILPEYLQCVKELYRGGLEPINFQTAADQARELINSWVESQTNGIIRNVLQPSSVDSQTAMVLVNAIVFKGLWEKAFKDEDTQAMPFRVTEQESKPVQMMYQIGLFRVASMASEKMKILELPFASGTMSMLVLLPDEVSGLEQLESIINFEKLTEWTSSNVMEERKIKVYLPRMKMEEKYNLTSVLMAMGITDVFSSSANLSGISSAESLKISQAVHAAHAEINEAGREVVGSAEAGVDAASVSEEFRADHPFLFCIKHIATNAVLFFGRCVSP
β-cell proliferation (Ki67) ([2]; 1 μg/ml): normal low β-cell proliferation
